Values of other authors, collected in US20150250887A1, “METHOD OF PREPARING RESIN TINCTURES” (JALEVA PHARMACEUTICALS, LLC, priority 2012, published 2015).

Tested on: not given
Details: pH 7.4

Row | SMILES | log D
1 | CN1CCCC1c1cccnc1 (stereo not shown) [nicotine] | −0.62
2 | C[C@]12CC[C@H]3[C@@H](CCC4=CC(=O)CC[C@@]43C)[C@@H]1CC[C@@H]2O [testosterone] | 3.18

Same assay, conditions: pH about 7.4

Row | SMILES | log D
3 | O=C(O)Cc1ccccc1Nc1c(Cl)cccc1Cl [diclofenac] | 1.44
4 | CNS(=O)(=O)CCc1ccc2[nH]cc(C3CCN(C)CC3)c2c1 [naratriptan] | −0.85
5 | Cc1nccn1CC1CCc2c(c3ccccc3n2C)C1=O (stereo not shown) [ondansetron] | 1.2
6 | CCCc1nn(C)c2c(=O)[nH]c(-c3cc(S(=O)(=O)N4CCN(C)CC4)ccc3OCC)nc12 [sildenafil] | 2.26
7 | CC1=C(/C=C/C(C)=C/C=C/C(C)=C/C(=O)O)C(C)(C)CCC1 [tretinoin] | 4.19
8 | CCCc1nc(C)c2c(=O)[nH]c(-c3cc(S(=O)(=O)N4CCN(CC)CC4)ccc3OCC)nn12 [vardenafil] | 3.71

Tested on: skin
Details: not given

Row | SMILES | skin irritant properties
9 | CC(=O)O.CC(=O)O.NC(=N\CCCCCC/N=C(N)/N=C(\N)Nc1ccc(Cl)cc1)/N=C(\N)Nc1ccc(Cl)cc1 [chlorhexidine acetate] | strong skin irritant
10 | N=C(NCCCCCCNC(=N)NC(=N)Nc1ccc(Cl)cc1)NC(=N)Nc1ccc(Cl)cc1.O=C(O)[C@H](O)[C@@H](O)[C@H](O)[C@H](O)CO.O=C(O)[C@H](O)[C@@H](O)[C@H](O)[C@H](O)CO [chlorhexidine gluconate] | does not exhibit as strong irritant properties
